Structures are written as SMILES. Where “and” joins values, the source holds several entries; their conditions need not be identical. Identical values can stand only once.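 The compound was tested at five concentrations on cells cultured in 96-well plates, with a 48-hour exposure period. At the GI50, growth is halved. TGI is the concentration that stops growth completely.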

Among the test systems are HCC-2998 colon; UACC-257 melanoma; SNB-75 CNS; BT-549 breast; IGROV1 ovarian; RXF 393 renal; ACHN renal; SF-268 CNS; CAKI-1 renal; NCI-H460 lung; COLO 205 colon.
What all share (assay): NCI anticancer screen, dose series, 48 h

Take `Cc1nc2c(=O)[nH]c(=O)nc-2n(CCO)c1C`: the TGI in the assay on HCC-2998 colon, in the assay on UACC-257 melanoma, in the assay with SNB-75 CNS, with BT-549 breast, in the assay on IGROV1 ovarian and with RXF 393 renal was above 100 µM throughout. Moreover, the TGI in the assay with ACHN renal, in the assay with SF-268 CNS, in the assay with CAKI-1 renal, in the assay with NCI-H460 lung and with COLO 205 colon was above 100 µM in each case.
As to `Nc1nc(Cl)cc(NCC2(CO)CC(CCCCc3ccccc3)C2)n1` (configuration not stated), the TGI in the assay on HCC-2998 colon, in the assay with UACC-257 melanoma, in the assay with SNB-75 CNS, with BT-549 breast, in the assay on IGROV1 ovarian and with RXF 393 renal was above 100 µM in each case. For the same compound, the TGI in the assay on ACHN renal, in the assay with SF-268 CNS, in the assay on CAKI-1 renal, in the assay on NCI-H460 lung and in the assay on COLO 205 colon was above 100 µM in each case.
For `CC(=O)NC1C(OCC(=O)NC(C)C(=O)NC(CCC(=O)NCCCCCNc2ccc([N+](=O)[O-])c3[nH]c4ccccc4c(=O)c23)C(N)=O)C(O)C(CO)OC1(C)OCc1ccccc1` (configuration not stated), the TGI is above 50 µM with HCC-2998 colon; above 50 µM in the assay with UACC-257 melanoma; above 50 µM in the assay with SNB-75 CNS; above 50 µM in the assay on BT-549 breast; above 50 µM in the assay on IGROV1 ovarian; 19.5 µM in the assay on RXF 393 renal. Further, the TGI in the assay with ACHN renal, in the assay with SF-268 CNS, in the assay with CAKI-1 renal, with NCI-H460 lung and in the assay with COLO 205 colon was above 50 µM each time.
Turning to `N=C(/C=C/c1ccc(-c2cn3cc(/C=C/C(=N)N4CCOCC4)ccc3n2)cc1)N1CCOCC1`, the TGI in the assay with HCC-2998 colon, in the assay on UACC-257 melanoma, with SNB-75 CNS, in the assay with BT-549 breast, in the assay on IGROV1 ovarian and in the assay with RXF 393 renal was above 100 µM each time. The TGI in the assay with ACHN renal, in the assay on SF-268 CNS, in the assay on CAKI-1 renal, with NCI-H460 lung and with COLO 205 colon was above 100 µM each time.
As to `c1ccc(/C(=N/Nc2cnccn2)c2ncccn2)cc1`, the TGI in the assay on HCC-2998 colon, with UACC-257 melanoma, in the assay with SNB-75 CNS, with BT-549 breast, in the assay on IGROV1 ovarian and in the assay on RXF 393 renal was above 100 µM in each case. The TGI in the assay on ACHN renal, in the assay on SF-268 CNS, in the assay on CAKI-1 renal, in the assay on NCI-H460 lung and in the assay on COLO 205 colon was above 100 µM throughout.
Take `CCOC(=O)C1(C(=O)OCC)C[C@H]2CON=C2[C@@H]1c1ccc(C(F)(F)F)cc1`: the TGI in the assay with HCC-2998 colon is 87.4 µM; in the assay with UACC-257 melanoma, above 100 µM; in the assay with SNB-75 CNS, above 100 µM; in the assay on BT-549 breast, above 100 µM; with IGROV1 ovarian it was 28.9 µM; in the assay with RXF 393 renal, above 100 µM. Further, the TGI was 34.4 µM in the assay with ACHN renal; above 100 µM with SF-268 CNS; above 100 µM in the assay with CAKI-1 renal; above 100 µM in the assay on NCI-H460 lung; above 100 µM with COLO 205 colon.
Take `CC(=O)C1=CC=C/C1=N\Nc1ccccc1`: the TGI in the assay on HCC-2998 colon worked out at 20.5 µM; in the assay with UACC-257 melanoma, 33.5 µM; in the assay with SNB-75 CNS, 24.6 µM; with BT-549 breast it was 27.4 µM; in the assay with IGROV1 ovarian, 21.3 µM; with RXF 393 renal, 34.5 µM. The TGI was 23.4 µM in the assay with ACHN renal; 23.8 µM with SF-268 CNS; 11.8 µM with CAKI-1 renal; 38.7 µM with NCI-H460 lung; 22.9 µM in the assay on COLO 205 colon.
For the compound `CCC1=C(C)C2=NC1=CC1=NC(=C(CC)/C1=C/O)C=C1N=C3C(=C1C)C(=O)C(C(=O)OC)C3=C1NC(=C2)C(C)C1CCC(=O)OC` (configuration not stated), the TGI in the assay with HCC-2998 colon, with UACC-257 melanoma, with SNB-75 CNS, with BT-549 breast, with IGROV1 ovarian and in the assay on RXF 393 renal was above 100 µM throughout. Moreover, the TGI in the assay on ACHN renal, in the assay on SF-268 CNS, in the assay on CAKI-1 renal, with NCI-H460 lung and in the assay on COLO 205 colon was above 100 µM throughout.
In the case of `c1ccc(COc2nc3ccc(C45CC6CC(CC(C6)C4)C5)cc3[nH]2)cc1`, the TGI was 56.4 µM in the assay with HCC-2998 colon; above 26.4 µM in the assay with UACC-257 melanoma; above 86.5 µM with SNB-75 CNS; above 100 µM with BT-549 breast; above 100 µM in the assay with IGROV1 ovarian; 55.8 µM in the assay on RXF 393 renal. In addition, the TGI with ACHN renal was above 100 µM; in the assay on SF-268 CNS, above 100 µM; in the assay on CAKI-1 renal, above 100 µM; in the assay on NCI-H460 lung, above 71.3 µM; in the assay on COLO 205 colon, 21.2 µM.
Take `COC(=O)c1nc2c(C)c(O)c(O)c([C@H](C)CCC=C(C)C)c2o1`: the TGI is 96.2 µM in the assay on HCC-2998 colon; 78 µM with UACC-257 melanoma; 56.1 µM in the assay on SNB-75 CNS; above 100 µM in the assay on BT-549 breast; 48.1 µM with IGROV1 ovarian; 39.6 µM in the assay with RXF 393 renal. For the same compound, the TGI in the assay with ACHN renal is 53.8 µM; with SF-268 CNS it was above 100 µM; in the assay on CAKI-1 renal, 50.9 µM; in the assay with NCI-H460 lung, above 100 µM; with COLO 205 colon it was 35.6 µM.
Regarding `Cc1cc(SCC(=O)c2ccc(Br)cc2)cc(C)[o+]1`, the TGI in the assay on HCC-2998 colon was 75.2 µM; in the assay on UACC-257 melanoma it was 65.9 µM; in the assay on SNB-75 CNS, 56.9 µM; with BT-549 breast, 98.4 µM; in the assay on IGROV1 ovarian, above 100 µM; in the assay on RXF 393 renal it was 62 µM. Moreover, the TGI in the assay on ACHN renal is 96.2 µM; with SF-268 CNS, above 100 µM; in the assay with CAKI-1 renal it was above 100 µM; with NCI-H460 lung, 76.2 µM; in the assay on COLO 205 colon it was 83.7 µM.
As to `CC(C)C[C@H](NC(=O)[C@@H](Cc1cccc2ccccc12)NC(=O)N1CCOCC1)B(O)O`, the TGI amounted to 4.47 µM in the assay on HCC-2998 colon; 5.18 µM in the assay with UACC-257 melanoma; 18.8 µM in the assay on SNB-75 CNS; 18.1 µM in the assay with BT-549 breast; 23.5 µM in the assay with IGROV1 ovarian; 6.8 µM in the assay on RXF 393 renal. Further, the TGI in the assay on ACHN renal is above 100 µM; with SF-268 CNS it was 15.1 µM; in the assay with CAKI-1 renal, 33.2 µM; with NCI-H460 lung, 40.6 µM; in the assay with COLO 205 colon it was 36.4 µM.
In the case of `CC(=O)OCC1OC(n2c(-c3ccccc3)c(N=Nc3ccc(Cl)cc3)c(C)c(C#N)c2=S)C(OC(C)=O)C(OC(C)=O)C1OC(C)=O` (configuration not stated), the GI50 in the assay on HCC-2998 colon was 18 µM and > 100 µM; in the assay on UACC-257 melanoma, 16.5 µM and > 100 µM; in the assay on SNB-75 CNS, 25.5 µM and 4.24 µM; in the assay with BT-549 breast, 5.4 µM and 17.9 µM; in the assay with IGROV1 ovarian, 7.17 µM and 29.9 µM; in the assay with ACHN renal, 6.95 µM and 34.6 µM. The GI50 with SF-268 CNS was 14.7 µM and 39.3 µM; with NCI-H460 lung it was 5.26 µM and 51.2 µM; in the assay with COLO 205 colon, 28 µM and > 100 µM. Also, the TGI in the assay on HCC-2998 colon is 63 µM and > 100 µM; with UACC-257 melanoma, above 100 µM; in the assay on SNB-75 CNS it was > 100 µM and 26.4 µM; with BT-549 breast, 20.1 µM and 58.8 µM; in the assay on IGROV1 ovarian, above 100 µM; in the assay with RXF 393 renal, 35.6 µM and 48.8 µM. Also, the TGI is above 100 µM with ACHN renal; above 100 µM with SF-268 CNS; 63.9 µM and > 100 µM in the assay with CAKI-1 renal; above 100 µM with NCI-H460 lung; 57.5 µM and > 100 µM in the assay on COLO 205 colon.

(Values after PubChem BioAssay (NCI).)
